ChEMBL document CHEMBL3045277, “Synthesis and biological activity of novel 1H-1,4-diazepines containing benzene sulfonyl piperazine moiety” (2011)

Assays:
Assay type in all cases: functional
Candida albicans = assay: Antifungal activity against Candida albicans by cup-plate method
Klebsiella pneumoniae = assay: Antibacterial activity against Klebsiella pneumoniae by cup-plate method
Metaphire posthuma [1] = assay: Antihelminthic activity against Metaphire posthuma assessed as time of occurrence of death
Staphylococcus aureus = assay: Antibacterial activity against Staphylococcus aureus by cup-plate method
Aspergillus niger = assay: Antifungal activity against Aspergillus niger by cup-plate method
Metaphire posthuma [2] = assay: Antihelminthic activity against Metaphire posthuma assessed as time of occurrence of paralysis

| Compound | inhibition zone (IZ) (Candida albicans) | inhibition zone (IZ) (Klebsiella pneumoniae) | Time (Metaphire posthuma [1]) | inhibition zone (IZ) (Staphylococcus aureus) | inhibition zone (IZ) (Aspergillus niger) | Time (Metaphire posthuma [2]) |
| --- | --- | --- | --- | --- | --- | --- |
| CC(=O)Nc1ccc(S(=O)(=O)N2CCN(CCCC3C(=O)NCCNC3=O)CC2)cc1 | 13 mm | 15 mm | 122 min | 13 mm | 15 mm | 103 min |
| Cc1cc(C2CCCCC2)n(O)c(=O)c1.NCCO [CICLOPIROX OLAMINE] | 24 mm |  |  |  | 22 mm |  |
| CC(=O)Nc1ccc(S(=O)(=O)N2CCN(CCCC3C(c4ccccc4)=NCCN=C3c3ccccc3)CC2)cc1 | 19 mm | 19 mm | 110 min | 17 mm | 18 mm | 93 min |
| CC(=O)Nc1ccc(S(=O)(=O)N2CCN(CCCC3C(=O)NCCN=C3C)CC2)cc1 (stereo unspecified) | 16 mm | 17 mm | 119 min | 16 mm | 17 mm | 102 min |
| C1CNCCN1.C1CNCCN1.C1CNCCN1.O.O=C(O)CC(O)(CC(=O)O)C(=O)O.O=C(O)CC(O)(CC(=O)O)C(=O)O [PIPERAZINE CITRATE] |  |  | 125 min |  |  | 100 min |
| O=C(O)c1cn(C2CC2)c2cc(N3CCNCC3)c(F)cc2c1=O [CIPROFLOXACIN] |  | 26 mm |  | 24 mm |  |  |
| CC(=O)Nc1ccc(S(=O)(=O)N2CCN(CCCC3C(C)=NCCN=C3c3ccccc3)CC2)cc1 (stereo unspecified) | 20 mm | 19 mm | 111 min | 20 mm | 20 mm | 91 min |
| CC(=O)Nc1ccc(S(=O)(=O)N2CCN(CCCC3C(C)=NCCN=C3C)CC2)cc1 | 21 mm | 21 mm | 103 min | 19 mm | 19 mm | 92 min |
